Measurements taken from patent US6221865A, “Inhibitors of protein isoprenyl transferases” (priority 1998, dated 2001).
Counter-ions that a name gives are not always drawn.

Target: T1, protein farnesyltransferase (Rattus norvegicus, UniProt Q02293+Q04631)
T1 construct: The enzyme is purified according to Reiss, Y., et al., Cell, 62: 81-88 (1990), utilizing steps one through three; from tissue; host or cells: rat brain
Test: Inhibition of farnesyltransferase (scintillation proximity assay, rat brain enzyme, biotin-K Ras B fragment substrate)
Format: biochemical
Conditions: for % inhibition of farnesyltransferase at 1 × 10^-7 M: 1 × 10^-7 M (Table 3); for % inhibition of farnesyltransferase at 1 × 10^-8 M: 1 × 10^-8 M (Table 4)
Summary of the method: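 Enzyme from rat brain, partly purified (steps one to three), assayed by SPA kit using 0.1 mM final biotin-K Ras B peptide as prenyl acceptor rather than biotin-lamin. Activity given as percent inhibition.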

T1 sequence (Q02293 whole entry, one chain of several): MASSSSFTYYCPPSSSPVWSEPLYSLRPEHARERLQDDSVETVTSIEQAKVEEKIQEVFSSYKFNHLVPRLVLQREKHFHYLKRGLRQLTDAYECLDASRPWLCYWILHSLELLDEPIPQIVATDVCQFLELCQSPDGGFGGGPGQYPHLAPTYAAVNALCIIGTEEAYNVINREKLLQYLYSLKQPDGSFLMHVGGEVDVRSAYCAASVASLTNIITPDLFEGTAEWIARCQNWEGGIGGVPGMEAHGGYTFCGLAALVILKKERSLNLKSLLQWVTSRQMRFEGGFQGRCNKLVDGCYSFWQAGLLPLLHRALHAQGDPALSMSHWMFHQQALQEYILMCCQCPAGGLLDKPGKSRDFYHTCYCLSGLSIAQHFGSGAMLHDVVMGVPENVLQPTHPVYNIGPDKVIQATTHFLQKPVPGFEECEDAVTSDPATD

Row | Compound | % inhibition of farnesyltransferase at 1 × 10^-6 M (1 × 10^-6 M (Table 2)) | % inhibition of farnesyltransferase at 1 × 10^-7 M | other results
1 | CSCC[C@H](NC(=O)c1ccc(CNC(CC2CCCCC2)C(O)C(O)CC(C)C)cc1-c1ccccc1C)C(=O)O (some centres unmarked) [Example 528] | 99% | – | –
2 | CSCC[C@H](NC(=O)c1ccc(COCc2ccoc2)cc1-c1ccccc1C)C(=O)O [Example 530] | 94% | – | –
3 | CSCC[C@H](NC(=O)c1ccc(COCCc2ccco2)cc1-c1ccccc1C)C(=O)[O-].[Li+] [Example 531] | – | 74% | –
4 | CSCC[C@H](NC(=O)c1ccc(COCc2ccc(C)o2)cc1-c1ccccc1C)C(=O)O [Example 532] | – | 88% | –
5 | CSCC[C@H](NC(=O)c1ccc(COCc2cc3ccccc3o2)cc1-c1ccccc1C)C(=O)[O-].[Li+] [Example 533] | – | 91% | –
6 | CSCC[C@H](NC(=O)c1ccc(COC(Cc2ccccc2)c2ccco2)cc1-c1ccccc1C)C(=O)[O-].[Li+] (some centres unmarked) [Example 534] | – | 84% | –
7 | CSCC[C@H](NC(=O)c1ccc(COCCc2ccc(-c3ccc(F)cc3)o2)cc1-c1ccccc1C)C(=O)[O-].[Li+] [Example 535] | – | 89% | –
8 | CSCC[C@H](NC(=O)c1ccc(COCCc2ccc(-c3ccc(Cl)cc3)o2)cc1-c1ccccc1C)C(=O)[O-].[Li+] [Example 536] | – | 79% | –
9 | CSCC[C@H](NC(=O)c1ccc(COCc2cncs2)cc1-c1ccccc1C)C(=O)[O-].[Li+] [Example 539] | – | 89% | –
10 | CSCC[C@H](NC(=O)c1ccc(NC(=O)Cc2ccccc2)cc1-c1ccccc1C)C(=O)O [Example 540] | 40% | – | –
11 | CSCC[C@H](NC(=O)c1ccc(NC(=O)Cc2ccc(C)cc2)cc1-c1ccccc1C)C(=O)O [Example 541] | 37% | – | –
12 | COc1ccc(CC(=O)Nc2ccc(C(=O)N[C@@H](CCSC)C(=O)O)c(-c3ccccc3C)c2)cc1 [Example 542] | 67% | – | –
13 | COc1ccccc1CCC(=O)Nc1ccc(C(=O)N[C@@H](CCSC)C(=O)O)c(-c2ccccc2C)c1 [Example 544] | 35% | – | –
14 | CSCC[C@H](NC(=O)c1ccc(CS[C@H](CO)Cc2ccccc2)cc1-c1ccccc1)C(=O)O [Example 545] | 88% | – | –
15 | CSCC[C@H](NC(=O)c1ccc(OC/C=C(\C)CCC=C(C)C)cc1-c1ccccc1C)C(=O)O [Example 546] | 97% | – | –
16 | CSCC[C@H](NC(=O)c1ccc(OC/C=C(\C)CC/C=C(\C)CCC=C(C)C)cc1-c1ccccc1C)C(=O)O [Example 547] | 91% | – | –
17 | CSCC[C@H](NC(=O)c1ccc(CSC2CCCCC2)cc1-c1ccccc1C)C(=O)[O-].[Li+] [Example 550] | 96% | – | –
18 | CSCC[C@H](NC(=O)c1ccc(CSc2ccc3ccccc3c2)cc1-c1ccccc1C)C(=O)O [Example 551] | – | 93% | –
19 | CSCC[C@H](NC(=O)c1ccc(OCCC2CCCCC2)cc1-c1ccccc1C)C(=O)[O-].[Li+] [Example 552] | 88% | – | –
20 | CSCC[C@H](NC(=O)c1ccc(OCCC23CC4CC(CC(C4)C2)C3)cc1-c1ccccc1C)C(=O)O [Example 553] | 92% | – | –

Row | Compound | % inhibition of farnesyltransferase at 1 × 10^-6 M (1 × 10^-6 M (Table 2)) | % inhibition of farnesyltransferase at 1 × 10^-7 M | other results
21 | CSCC[C@H](NC(=O)c1ccc(CSCc2ccccc2)cc1-c1ccccc1C)C(=O)[O-].[Li+] [Example 554] | 96% | – | –
22 | CSCC[C@H](NC(=O)c1ccc(CS(=O)(=O)Cc2ccccc2)cc1-c1ccccc1C)C(=O)O [Example 555] | 85% | – | –
23 | CSCC[C@H](NC(=O)c1ccc(CSCc2ccc(C)cc2)cc1-c1ccccc1C)C(=O)[O-].[Li+] [Example 556] | 99% | – | –
24 | CSCC[C@H](NC(=O)c1ccc(CSCc2ccccc2C)cc1-c1ccccc1C)C(=O)[O-].[Li+] [Example 557] | 93% | – | –
25 | CSCC[C@H](NC(=O)c1ccc(CSCC2CCCCC2)cc1-c1ccccc1C)C(=O)[O-].[Li+] [Example 559] | – | 96% | –
26 | CSCC[C@H](NC(=O)c1ccc(OC/C=C/c2ccccc2)cc1-c1ccccc1C)C(=O)O [Example 560] | 91% | – | –
27 | CSCC[C@H](NC(=O)c1ccc(OCCOc2ccccc2)cc1-c1ccccc1C)C(=O)O [Example 561] | 91% | – | –
28 | CSCC[C@H](NC(=O)c1ccc(CSCCc2ccccc2)cc1-c1ccccc1C)C(=O)[O-].[Li+] [Example 562] | – | 95% | –
29 | CSCC[C@H](NC(=O)c1ccc(OCCCC2CCCCC2)cc1-c1ccccc1C)C(=O)O [Example 564] | 98% | – | –
30 | CSCC[C@H](NC(=O)c1ccc(OCCOC2CCCCC2)cc1-c1ccccc1C)C(=O)[O-].[Li+] [Example 565] | 94% | – | –
31 | CSCC[C@H](NC(=O)c1ccc(OCCCOc2ccccc2)cc1-c1ccccc1C)C(=O)O [Example 566] | 98% | – | –
32 | CSCC[C@H](NC(=O)c1ccc(OCCCCOc2ccccc2)cc1-c1ccccc1C)C(=O)O [Example 568] | 93% | – | –
33 | CSCC[C@H](NC(=O)c1ccc(COCc2ccccc2)cc1-c1ccccc1C)C(=O)[O-].[Li+] [Example 571] | – | 88% | –
34 | CSCC[C@H](NC(=O)c1ccc(CC(Cc2ccccc2)c2ccccc2)cc1-c1ccccc1C)C(=O)O (some centres unmarked) [Example 572, N-[4-(2,3-diphenylpropan-1-yl)-2-(2-methylphenyl)benzoyl]methionine lithium salt] | – | – | inhibition at 1 µM (read-out: % inhibition of farnesyltransferase at 1 × 10^-6 M, 1 × 10^-6 M (Table 2)): 91%
35 | CSCC[C@H](NC(=O)c1ccc(COc2ccc3ccccc3c2)cc1-c1ccccc1C)C(=O)O [Example 573] | – | 72% | –
36 | CSCC[C@H](NC(=O)c1ccc(COc2cccc3ccccc23)cc1-c1ccccc1C)C(=O)O [Example 574] | – | 81% | –
37 | CSCC[C@H](NC(=O)c1ccc(COCc2ccccc2)cc1-c1ccccc1)C(=O)O [Example 575] | 70% | – | –
38 | Cc1ccccc1-c1cc(COCc2ccccc2)ccc1C(=O)N[C@@H](CCS(C)(=O)=O)C(=O)O [Example 576] | 88% | – | –
39 | CSCC[C@H](NC(=O)c1ccc(COCc2ccccc2C)cc1-c1ccccc1C)C(=O)[O-].[Li+] [Example 577] | 94% | – | –
40 | CSCC[C@H](NC(=O)c1ccc(COCc2cccc(C)c2)cc1-c1ccccc1C)C(=O)[O-].[Li+] [Example 578] | – | 90% | –

Row | Compound | % inhibition of farnesyltransferase at 1 × 10^-6 M (1 × 10^-6 M (Table 2)) | % inhibition of farnesyltransferase at 1 × 10^-7 M | other results
41 | CSCC[C@H](NC(=O)c1ccc(COCc2ccc(C)cc2)cc1-c1ccccc1C)C(=O)[O-].[Li+] [Example 579] | – | 92% | –
42 | CSCC[C@H](NC(=O)c1ccc(COCc2ccccc2)cc1-c1ccccc1C)C(=O)NS(=O)(=O)c1ccccc1 [Example 580] | – | 90% | –
43 | CSCC[C@H](NC(=O)c1ccc(COCc2ccccc2)cc1-c1ccccc1C)C(=O)NS(=O)(=O)c1ccc(C)cc1 [Example 582] | 99% | – | –
44 | CSCC[C@H](NC(=O)c1ccc(COCc2ccc3ccccc3c2)cc1-c1ccccc1C)C(=O)[O-].[Li+] [Example 583] | 98% | – | –
45 | CSCC[C@H](NC(=O)c1ccc(COCc2cccc3ccccc23)cc1-c1ccccc1C)C(=O)[O-].[Li+] [Example 584] | – | 96% | –
46 | CSCC[C@H](NC(=O)c1ccc(COCC2CCCCC2)cc1-c1ccccc1C)C(=O)[O-].[Li+] [Example 585] | – | 96% | –
47 | CSCC[C@H](NC(=O)c1ccc(CSCc2ccccc2)cc1-c1ccccc1C)C(=O)NS(=O)(=O)c1ccc(C)cc1 [Example 586] | – | – | % inhibition of farnesyltransferase at 1 × 10^-8 M: 90%
48 | CSCC[C@H](NC(=O)c1ccc(COCCc2ccccc2)cc1-c1ccccc1C)C(=O)[O-].[Li+] [Example 587] | 97% | – | –
49 | CSCC[C@H](NC(=O)c1ccc(COCCc2ccccc2Cl)cc1-c1ccccc1C)C(=O)[O-].[Li+] [Example 588] | – | – | % inhibition of farnesyltransferase at 1 × 10^-8 M: 68%
50 | COc1ccccc1CCOCc1ccc(C(=O)N[C@@H](CCSC)C(=O)O)c(-c2ccccc2C)c1 [Example 589] | – | 91% | –
51 | CSCC[C@H](NC(=O)c1ccc(COCCc2ccc(Cl)cc2)cc1-c1ccccc1C)C(=O)[O-].[Li+] [Example 590] | – | 95% | –
52 | CSCC[C@H](NC(=O)c1ccc(COCCc2ccc(Cl)cc2Cl)cc1-c1ccccc1C)C(=O)[O-].[Li+] [Example 591] | – | – | % inhibition of farnesyltransferase at 1 × 10^-8 M: 82%
53 | CSCC[C@H](NC(=O)c1ccc(COCCc2cccc3ccccc23)cc1-c1ccccc1C)C(=O)[O-].[Li+] [Example 592] | – | 93% | –
54 | CSCC[C@H](NC(=O)c1ccc(COCCc2ccc3ccccc3c2)cc1-c1ccccc1C)C(=O)[O-].[Li+] [Example 593] | – | 86% | –
55 | CSCC[C@H](NC(=O)c1ccc(COCCC2CCCCC2)cc1-c1ccccc1C)C(=O)[O-].[Li+] [Example 594] | – | 95% | –
56 | CSCC[C@H](NC(=O)c1ccc(COCCCc2ccccc2)cc1-c1ccccc1C)C(=O)[O-].[Li+] [Example 595] | 97% | – | –
57 | CSCC[C@@H](C(=O)[O-])N(C)C(=O)c1ccc(COCCCC2CCCCC2)cc1-c1ccccc1C.[Li+] [Example 597] | – | 75% | –
58 | CSCC[C@H](NC(=O)c1ccc(COCCCC23CC4CC(CC(C4)C2)C3)cc1-c1ccccc1C)C(=O)[O-].[Li+] [Example 599] | – | – | % inhibition of farnesyltransferase at 1 × 10^-8 M: 86%
59 | CSCC[C@H](NC(=O)c1ccc(COCCCCC2CCCCC2)cc1-c1ccccc1C)C(=O)O [Example 600] | – | 93% | –
